Results reported in patent US20160045513A1, “ISOXAZOLE COMPOUND FOR THE TREATMENT OF CANCER” (Novartis AG, priority 2007, published 2016).

Experiments:
Assay in all cases: cell proliferation, tumor derived cell lines
Assay type in all cases: cell-based
[1] = system: HN5; settings: Homo sapiens, Head & Neck, 72 or 96 hours exposure
Protocol: (§1) Thirty-seven cancer derived cell lines are used (BT474, MDA-MB-361, MDA-MB-453, SKBr3, T47D, MCF7, MDA-MB-231, MDA-MB-468, SK-MEL-5, A375, MALME-3M, SK-MEL-28, WM266.4, RPMI8226, U266, BE, Colo205, HCT116, HT29, MAWI, RKO, U87MG, HN5, RPMI-8226, A549, MV522, NCI-H1299, NCI-H460, 41M, A2780, CHI, NCI-N87, SKOV3, PC3, MO7e, GIST882 and Baf3) to test the effect of 5-(2,4-Dihydroxy-5-isopropyl-phenyl)-4-(4-morpholin-4-ylmethyl-phenyl)-isoxazole-3-carboxylic acid ethylamide. Cell lines are commercially available from American Type Culture Collection (ATCC). These cell lines cover the following 12 cancer or tumor types: breast, melanoma, multiple myeloma (MM), colon, glioblastoma, head & neck, leukemia, lung, ovarian, prostate, stomach and gastrointestinal stromal tumour (GIST). After division and medium change, cells from stock culture are seeded on cell plates and cultured for about 18 hours to allow cell growth and attachment before starting the assay. On the first day of the assay, 5-(2,4-Dihydroxy-5-isopropyl-phenyl)-4-(4-morpholin-4-ylmethyl-phenyl)-isoxazole-3-carboxylic acid ethylamide is added to the medium at various concentrations up to […]. Cells are cultured up to 72 or 96 hours and cell proliferation is determined using commercially available cell proliferation kits.
(§2) The cells were continually exposed to 5-(2,4-Dihydroxy-5-isopropyl-phenyl)-4-(4-morpholin-4-ylmethyl-phenyl)-isoxazole-3-carboxylic acid ethylamide for either 72 or 96 hours and cell growth was determined by commercially available kits based on either SRB, Alamar blue, methylene blue or WST-1 methods.

[2] = system: NCI-H1299; settings: Homo sapiens, Lung, 72 or 96 hours exposure
Protocol: as §1, §2

[3] = system: U266; settings: Homo sapiens, U-266, Multiple myeloma (MM), 72 or 96 hours exposure
Protocol: as §1, §2

[4] = system: SKOV3; settings: Homo sapiens, SK-OV-3, Ovarian, 72 or 96 hours exposure
Protocol: as §1, §2

[5] = system: MALME-3M; settings: Homo sapiens, Melanoma, 72 or 96 hours exposure
Protocol: as §1, §2

[6] = system: NCI-H460; settings: Homo sapiens, Lung, 72 or 96 hours exposure
Protocol: as §1, §2

[7] = system: MAWI; settings: Colon, 72 or 96 hours exposure
Protocol: as §1, §2

[8] = system: A375; settings: Homo sapiens, A-375, Melanoma, 72 or 96 hours exposure
Protocol: as §1, §2

[9] = system: NCI-N87; settings: Homo sapiens, Stomach, 72 or 96 hours exposure
Protocol: as §1, §2

[10] = system: A2780; settings: Homo sapiens, Ovarian, 72 or 96 hours exposure
Protocol: as §1, §2

[11] = system: GIST882; settings: Homo sapiens, Gastrointestinal stromal tumour (GIST), 72 or 96 hours exposure
Protocol: as §1, §2

[12] = system: CH1; settings: Homo sapiens, Ovarian, 72 or 96 hours exposure
Protocol: as §1, §2

[13] = system: RKO; settings: Homo sapiens, Colon, 72 or 96 hours exposure
Protocol: as §1, §2

[14] = system: BT474; settings: Homo sapiens, BT-474, Breast, 72 or 96 hours exposure
Protocol: as §1, §2

[15] = system: RPMI-8226; settings: Homo sapiens, Leukemia, 72 or 96 hours exposure
Protocol: as §1, §2

[16] = system: MDA-MB-453; settings: Homo sapiens, Breast, 72 or 96 hours exposure
Protocol: as §1, §2

[17] = system: U87MG; settings: Homo sapiens, U-87 MG, Glioblastoma, 72 or 96 hours exposure
Protocol: as §1, §2

[18] = system: PC3; settings: Homo sapiens, PC-3, Prostate, 72 or 96 hours exposure
Protocol: as §1, §2

[19] = system: SK-MEL-28; settings: Homo sapiens, Melanoma, 72 or 96 hours exposure
Protocol: as §1, §2

[20] = system: A549; settings: Homo sapiens, Lung, 72 or 96 hours exposure
Protocol: as §1, §2

[21] = system: SK-MEL-5; settings: Homo sapiens, Melanoma, 72 or 96 hours exposure
Protocol: as §1, §2

[22] = system: MCF7; settings: Homo sapiens, Breast, 72 or 96 hours exposure
Protocol: as §1, §2

[23] = system: WM266.4; settings: Homo sapiens, WM 266-4, Melanoma, 72 or 96 hours exposure
Protocol: as §1, §2

[24] = system: BE; settings: Colon, 72 or 96 hours exposure
Protocol: as §1, §2

[25] = system: SKBr3; settings: Homo sapiens, SK-BR-3, Breast, 72 or 96 hours exposure
Protocol: as §1, §2

[26] = system: MDA-MB-361; settings: Homo sapiens, Breast, 72 or 96 hours exposure
Protocol: as §1, §2

[27] = system: Colo205; settings: Homo sapiens, COLO 205, Colon, 72 or 96 hours exposure
Protocol: as §1, §2

[28] = system: HT29; settings: Homo sapiens, HT-29, Colon, 72 or 96 hours exposure
Protocol: as §1, §2

[29] = system: MO7e; settings: 72 or 96 hours exposure
Protocol: as §1, §2

[30] = system: MDA-MB-468; settings: Homo sapiens, Breast, 72 or 96 hours exposure
Protocol: as §1, §2

[31] = system: MDA-MB-231; settings: Homo sapiens, Breast, 72 or 96 hours exposure
Protocol: as §1, §2

[32] = system: 41M; settings: Homo sapiens, Ovarian, 72 or 96 hours exposure
Protocol: as §1, §2

[33] = system: T47D; settings: Homo sapiens, Breast, 72 or 96 hours exposure
Protocol: as §1, §2

Q: Which IC50 [1] does the source give for `CCNC(=O)c1noc(-c2cc(C(C)C)c(O)cc2O)c1-c1ccc(CN2CCOCC2)cc1` [AUY922, 5-(2,4-Dihydroxy-5-isopropyl-phenyl)-4-(4-morpholin-4-ylmethyl-phenyl)-isoxazole-3-carboxylic acid ethylamide] here?
A: The IC50 was 8 nM.

Q: And the IC50 [2]?
A: Its IC50 is 5.7 nM.

Q: And the IC50 [3]?
A: Its IC50 is 23.3 nM.

Q: What about the IC50 [4] of the same compound?
A: Its IC50 is 3.7 nM.

Q: And the IC50 [5]?
A: The IC50 was 7.7 nM.

Q: What about the IC50 [6] of the same compound?
A: Its IC50 is 14 nM.

Q: What about the IC50 [7] of the same compound?
A: Its IC50 is 50 nM.

Q: What about the IC50 [8] of the same compound?
A: The IC50 was 3 nM.

Q: What about the IC50 [9] of the same compound?
A: The IC50 was 0.2 nM.

Q: And the IC50 [10]?
A: Its IC50 is 6.1 nM.

Q: What about the IC50 [11] of the same compound?
A: Its IC50 is 6.2 nM.

Q: What about the IC50 [12] of the same compound?
A: The IC50 was 2.8 nM.

Q: And the IC50 [13]?
A: The IC50 was 3.1 nM.

Q: What about the IC50 [14] of the same compound?
A: The IC50 was 2.8 nM.

Q: What about the IC50 [15] of the same compound?
A: Its IC50 is 6.3 nM.

Q: And the IC50 [16]?
A: Its IC50 is 3.9 nM.

Q: What about the IC50 [17] of the same compound?
A: Its IC50 is 6 nM.

Q: What about the IC50 [18] of the same compound?
A: The IC50 was 5 nM.

Q: What about the IC50 [19] of the same compound?
A: The IC50 was 8 nM.

Q: And the IC50 [20]?
A: Its IC50 is 11.7 nM.

Q: What about the IC50 [21] of the same compound?
A: Its IC50 is 3 nM.

Q: And the IC50 [22]?
A: Its IC50 is 2.3 nM.

Q: What about the IC50 [23] of the same compound?
A: Its IC50 is 6.2 nM.

Q: What about the IC50 [24] of the same compound?
A: Its IC50 is 2.8 nM.

Q: What about the IC50 [25] of the same compound?
A: Its IC50 is 2.3 nM.

Q: What about the IC50 [26] of the same compound?
A: Its IC50 is 6 nM.

Q: And the IC50 [27]?
A: Its IC50 is 6.2 nM.

Q: What about the IC50 [28] of the same compound?
A: Its IC50 is 30 nM.

Q: What about the IC50 [29] of the same compound?
A: The IC50 was 10.6 nM.

Q: And the IC50 [30]?
A: Its IC50 is 3.5 nM.

Q: What about the IC50 [31] of the same compound?
A: The IC50 was 7.7 nM.

Q: What about the IC50 [32] of the same compound?
A: Its IC50 is 3 nM.

Q: What about the IC50 [33] of the same compound?
A: The IC50 was 2.6 nM.
